Test results as given in patent US9586962B2, “Disubstituted octahydropyrrolo [3,4-C] pyrroles as orexin receptor modulators” (Janssen Pharmaceutica NV, priority 2011, dated 2017).

molecular target: T1, human orexin 2 receptor (Homo sapiens (Human), UniProt O43614); test: Human orexin 2 receptor Ca2+ mobilization assay (FLIPR, PFSK cells, orexin B 100 nM); assay type: cell-based; conditions: modified Cheng-Prusoff correction, read-out: OR 2 Kb
T1 sequence (O43614 whole entry): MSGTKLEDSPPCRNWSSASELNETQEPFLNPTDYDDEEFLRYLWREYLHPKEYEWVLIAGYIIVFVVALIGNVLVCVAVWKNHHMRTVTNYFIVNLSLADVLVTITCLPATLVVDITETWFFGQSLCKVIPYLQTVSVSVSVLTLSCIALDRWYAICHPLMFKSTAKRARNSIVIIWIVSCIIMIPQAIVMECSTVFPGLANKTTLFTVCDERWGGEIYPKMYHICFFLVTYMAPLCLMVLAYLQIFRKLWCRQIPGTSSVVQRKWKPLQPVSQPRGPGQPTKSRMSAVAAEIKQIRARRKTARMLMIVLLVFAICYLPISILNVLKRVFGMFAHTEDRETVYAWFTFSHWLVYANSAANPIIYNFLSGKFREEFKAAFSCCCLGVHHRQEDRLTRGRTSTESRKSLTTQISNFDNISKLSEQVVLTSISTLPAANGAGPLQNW

Row | Structure (SMILES) | Kb
1 | Cc1noc(-c2c(F)cccc2C(=O)N2CC3CN(c4ncc(F)c(C)n4)CC3C2)n1 (stereo not drawn) [Example 440, 2-{[3-Fluoro-2-(3-methyl-1,2,4-oxadiazol-5-yl)phenyl]carbonyl}-5-(5-fluoro-4-methylpyrimidin-2-yl)octahydropyrrolo[3,4-c]pyrrole] | 15 nM

molecular target: T1, human orexin 2 receptor; test: Human orexin 2 receptor radioligand binding ([3H]EMPA competition, HEK293 cells); conditions: HEK293 cells expressing human orexin-2 receptor, read-out: OR 2 Ki

Row | Structure (SMILES) | Ki
2 | Cc1noc(-c2c(F)cccc2C(=O)N2CC3CN(c4ncc(F)c(C)n4)CC3C2)n1 (stereo not drawn) [Example 440, 2-{[3-Fluoro-2-(3-methyl-1,2,4-oxadiazol-5-yl)phenyl]carbonyl}-5-(5-fluoro-4-methylpyrimidin-2-yl)octahydropyrrolo[3,4-c]pyrrole] | 64 nM
3 | Cc1cc(C)nc(N2CC3CN(C(=O)c4ccc(OC(F)F)cc4-n4nccn4)CC3C2)n1 (stereo not drawn) [Example 446, 2-{[4-(Difluoromethoxy)-2-(2H-1,2,3-triazol-2-yl)phenyl]carbonyl}-5-(4,6-dimethylpyrimidin-2-yl)octahydropyrrolo[3,4-c]pyrrole] | 72 nM
4 | CCOc1ncccc1C(=O)N1CC2CN(c3ncc4cc(F)ccc4n3)CC2C1 (stereo not drawn) [Example 448, 2-{5-[(2-Ethoxypyridin-3-yl)carbonyl]hexahydropyrrolo[3,4-c]pyrrol-2(1H)-yl}-6-fluoroquinazoline] | 340 nM
5 | CCOc1ccc(C)nc1C(=O)N1CC2CN(c3cc(N(C)C)nc(C)n3)CC2C1 (stereo not drawn) [Example 420, 6-{5-[(3-Ethoxy-6-methylpyridin-2-yl)carbonyl]hexahydro-pyrrolo[3,4-c]pyrrol-2(1H)-yl}-N,N,2-trimethylpyrimidin-4-amine] | 1350 nM
6 | Cc1cc(C)nc(N2CC3CN(C(=O)c4c(F)cccc4-c4ccnnc4)CC3C2)n1 (stereo not drawn) [Example 488, 2-(4,6-Dimethylpyrimidin-2-yl)-5-[(2-fluoro-6-pyridazin-4-ylphenyl)carbonyl]octahydropyrrolo[3,4-c]pyrrole] | 10000 nM
7 | Cc1cc(C)nc(N2CC3CN(C(=O)c4c(F)cccc4-c4nccs4)CC3C2)n1 (stereo not drawn) [Example 476, 2-(4,6-Dimethylpyrimidin-2-yl)-5-{[2-fluoro-6-(1,3-thiazol-2-yl)phenyl]carbonyl}octahydropyrrolo[3,4-c]pyrrole] | 15 nM
8 | Cc1cc(C)nc(N2CC3CN(C(=O)c4ncccc4C(F)(F)F)CC3C2)n1 (stereo not drawn) [Example 413, 2-(4,6-Dimethylpyrimidin-2-yl)-5-{[3-(trifluoromethyl)pyridin-2-yl]carbonyl}octahydropyrrolo[3,4-c]pyrrole] | 9000 nM
9 | O=C(c1cccc(F)c1I)N1CC2CN(c3cnc4cc(F)c(F)cc4n3)CC2C1 (stereo not drawn) [Example 449, 6,7-Difluoro-2-{5-[(3-fluoro-2-iodophenyl)carbonyl]hexahydropyrrolo[3,4-c]pyrrol-2(1H)-yl}quinoxaline] | 160 nM
10 | Cc1cccc(C(=O)N2CC3CN(c4cnc5cc(F)c(F)cc5n4)CC3C2)c1-n1nccn1 (stereo not drawn) [Example 460, 6,7-Difluoro-2-[5-{[3-methyl-2-(2H-1,2,3-triazol-2-yl)phenyl]carbonyl}hexahydropyrrolo[3,4-c]pyrrol-2(1H)-yl]quinoxaline] | 109 nM
11 | CCOc1ncccc1C(=O)N1CC2CN(c3cnc4cc(F)c(F)cc4n3)CC2C1 (stereo not drawn) [Example 447, 2-{5-[(2-Ethoxypyridin-3 yl)carbonyl]hexahydropyrrolo[3,4-c]pyrrol-2(1H)-yl}-6,7-difluoroquinoxaline] | 580 nM
12 | COc1cccc(-n2nccn2)c1C(=O)N1CC2CN(c3nc(C)cc(C)n3)CC2C1 (stereo not drawn) [Example 465, 2-(4,6-Dimethylpyrimidin-2-yl)-5-{[2-methoxy-6-(2H-1,2,3-triazol-2-yl)phenyl]carbonyl}octahydropyrrolo[3,4-c]pyrrole] | 33 nM
13 | Cc1cc(C)nc(N2CC3CN(C(=O)c4c(C)nc5sccn45)CC3C2)n1 (stereo not drawn) [Example 464, 5-{[5-(4,6-Dimethylpyrimidin-2-yl)hexahydropyrrolo[3,4-c]pyrrol-2(1H)-yl]carbonyl}-6-methylimidazo[2,1-b][1,3]thiazole] | 3900 nM
14 | Cc1nc(N(C)C)cc(N2CC3CN(C(=O)c4ccc(F)cc4-n4nccn4)CC3C2)n1 (stereo not drawn) [Example 417, 6-[5-{[4-Fluoro-2-(2H-1,2,3-triazol-2-yl)phenyl]carbonyl}hexahydropyrrolo[3,4-c]pyrrol-2(1H)-yl]-N,N,2-trimethylpyrimidin-4-amine] | 62 nM
15 | COc1ccc(-n2nccn2)c(C(=O)N2CC3CN(c4cc(N(C)C)nc(C)n4)CC3C2)c1 (stereo not drawn) [Example 423, 6-[5-{[5-Methoxy-2-(2H-1,2,3-triazol-2-yl)phenyl]carbonyl}hexahydropyrrolo[3,4-c]pyrrol-2(1H)-yl]-N,N,2-trimethylpyrimidin-4-amine] | 182 nM
16 | Cc1nc(N(C)C)cc(N2CC3CN(C(=O)c4cc(F)ccc4-c4ncccn4)CC3C2)n1 (stereo not drawn) [Example 425, 6-{5-[(5-Fluoro-2-pyrimidin-2-ylphenyl)carbonyl]hexahydropyrrolo[3,4-c]pyrrol-2(1H)-yl}-N,N,2-trimethylpyrimidin-4-amine] | 85 nM
17 | O=C(c1cccc(F)c1-c1cscn1)N1CC2CN(c3cnc4cc(F)c(F)cc4n3)CC2C1 (stereo not drawn) [Example 455, 6,7-Difluoro-2-[5-{[3-fluoro-2-(1,3-thiazol-4-yl)phenyl]carbonyl}hexahydropyrrolo[3,4-c]pyrrol-2(1H)-yl]quinoxaline] | 32 nM
18 | Cc1cc(C)nc(N2CC3CN(C(=O)c4c(F)cccc4C4=CC(=O)OC4)CC3C2)n1 (stereo not drawn) [Example 480, 4-(2-{[5-(4,6-Dimethylpyrimidin-2-yl)hexahydropyrrolo[3,4-c]pyrrol-2(1H)-yl]carbonyl}-3-fluorophenyl)furan-2(5H)-one] | 3810 nM
19 | Cc1cc(C)nc(N2CC3CN(C(=O)c4nc(C)ccc4-c4ncccn4)CC3C2)n1 (stereo not drawn) [Example 421, 2-(4,6-Dimethylpyrimidin-2-yl)-5-[(6-methyl-3-pyrimidin-2-ylpyridin-2-yl)carbonyl]octahydropyrrolo[3,4-c]pyrrole] | 108 nM
20 | CCOc1ccc(C)nc1C(=O)N1CC2CN(c3nc(C)cc(C)n3)CC2C1 (stereo not drawn) [Example 414, 2-(4,6-Dimethylpyrimidin-2-yl)-5-[(3-ethoxy-6-methylpyridin-2-yl)carbonyl]octahydropyrrolo[3,4-c]pyrrole] | 897 nM
21 | Cc1cc(C)nc(N2CC3CN(C(=O)c4c(F)cccc4-c4[nH]ncc4C(F)(F)F)CC3C2)n1 (stereo not drawn) [Example 478, 2-(4,6-Dimethylpyrimidin-2-yl)-5-({2-fluoro-6-[4-(trifluoromethyl)-1H-pyrazol-5-yl]phenyl}carbonyl)octahydropyrrolo[3,4-c]pyrrole] | 49 nM
22 | CCCOc1ccc(C)nc1C(=O)N1CC2CN(c3nc(C)cc(C)n3)CC2C1 (stereo not drawn) [Example 419, 2-(4,6-Dimethylpyrimidin-2-yl)-5-[(6-methyl-3-propoxypyridin-2-yl)carbonyl]octahydropyrrolo[3,4-c]pyrrole] | 1070 nM
23 | O=C(c1cccc(F)c1-c1cncs1)N1CC2CN(c3cnc4cc(F)c(F)cc4n3)CC2C1 (stereo not drawn) [Example 454, 6,7-Difluoro-2-[5-{[3-fluoro-2-(1,3-thiazol-5-yl)phenyl]carbonyl}hexahydropyrrolo[3,4-c]pyrrol-2(1H)-yl]quinoxaline] | 72 nM
24 | Cc1nc(N(C)C)cc(N2CC3CN(C(=O)c4cccc(F)c4-c4ncccn4)CC3C2)n1 (stereo not drawn) [Example 427, 6-{5-[(3-Fluoro-2-pyrimidin-2-ylphenyl)carbonyl]hexahydropyrrolo[3,4-c]pyrrol-2(1H)-yl}-N, N,2-trimethylpyrimidin-4-amine] | 79 nM
25 | O=C(c1cccc(F)c1-c1ncccc1F)N1CC2CN(c3cnc4cc(F)c(F)cc4n3)CC2C1 (stereo not drawn) [Example 450, 6,7-Difluoro-2-[5-{[3-fluoro-2-(3-fluoropyridin-2-yl)phenyl]carbonyl}hexahydropyrrolo[3,4-c]pyrrol-2(1H)-yl]quinoxaline] | 36 nM
26 | Cc1cc(C)nc(N2CC3CN(C(=O)c4c(F)cccc4-c4ccc(Cl)cn4)CC3C2)n1 (stereo not drawn) [Example 484, 2-{[2-(5-Chloropyridin-2-yl)-6-fluorophenyl]carbonyl}-5-(4,6-dimethylpyrimidin-2-yl)octahydropyrrolo[3,4-c]pyrrole] | 230 nM
27 | Cc1ccc(-c2ncccn2)c(C(=O)N2CC3CN(c4cc(N(C)C)nc(C)n4)CC3C2)n1 (stereo not drawn) [Example 428, N,N,2-Trimethyl-6-{5-[(6-methyl-3-pyrimidin-2-ylpyridin-2-yl)carbonyl]hexahydropyrrolo[3,4-c]pyrrol-2(1H)-yl}pyrimidin-4-amine] | 244 nM
28 | Cc1cc(C)nc(N2CC3CN(C(=O)c4c(F)cccc4-c4cscn4)CC3C2)n1 (stereo not drawn) [Example 486, 2-(4,6-Dimethylpyrimidin-2-yl)-5-{[2-fluoro-6-(1,3-thiazol-4-yl)phenyl]carbonyl}octahydropyrrolo[3,4-c]pyrrole] | 15 nM
29 | CCOc1ncccc1C(=O)N1CC2CN(c3nc(C)cc(C)n3)CC2C1 (stereo not drawn) [Example 415, 2-(4,6-Dimethylpyrimidin-2-yl)-5-[(2-ethoxypyridin-3-yl)carbonyl]octahydropyrrolo[3,4-c]pyrrole] | 334 nM
30 | COc1ccc(C(=O)N2CC3CN(c4cnc5cc(F)c(F)cc5n4)CC3C2)c(-c2ncccn2)c1 (stereo not drawn) [Example 459, 6,7-Difluoro-2-{5-[(4-methoxy-2-pyrimidin-2-ylphenyl)carbonyl]hexahydropyrrolo[3,4-c]pyrrol-2(1H)-yl}quinoxaline] | 38 nM
